Laboratory results from article PMC4729491, “The Cellular Thioredoxin-1/Thioredoxin Reductase-1 Driven Oxidoreduction Represents a Chemotherapeutic Target for HIV-1 Entry Inhibition” (PLoS ONE, 2016).

Experiments:
[1] = biological target: T1, TrxR1 (Homo sapiens, UniProt Q16881); assay: Inhibition of TrxR1-dependent reduction of HIV-1 gp120 (ELISA); type: biochemical; conditions: 100 μM compound; 1 μM Trx1 + 100 nM TrxR1 + 240 μM NADPH; control without compound 38–54%
T1 construct: purchased IMCO Corporation (Stockholm, Sweden) or Sino Biological Inc (Zoersel, Belgium)
T1 sequence (Q16881 1-499 isoform Q16881-5): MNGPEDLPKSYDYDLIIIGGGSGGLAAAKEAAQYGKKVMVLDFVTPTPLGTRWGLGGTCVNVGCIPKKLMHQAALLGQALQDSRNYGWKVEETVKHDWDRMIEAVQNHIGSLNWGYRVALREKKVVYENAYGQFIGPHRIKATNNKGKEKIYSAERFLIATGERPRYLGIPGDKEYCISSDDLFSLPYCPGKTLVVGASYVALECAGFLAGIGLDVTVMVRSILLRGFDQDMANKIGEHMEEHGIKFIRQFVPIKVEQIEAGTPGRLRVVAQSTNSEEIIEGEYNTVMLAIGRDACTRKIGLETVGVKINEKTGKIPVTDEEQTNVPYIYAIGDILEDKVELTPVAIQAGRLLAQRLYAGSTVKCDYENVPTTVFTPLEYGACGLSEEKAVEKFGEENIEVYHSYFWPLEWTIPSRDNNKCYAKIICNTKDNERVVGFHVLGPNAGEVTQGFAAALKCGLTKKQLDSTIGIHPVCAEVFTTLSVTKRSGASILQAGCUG
Description: After coating 96-well Maxi-Sorp ELISA plates (Nunc Inc, Roskilde, Denmark) with 100 μl gp120 in PBS (2 μg/ml), these were blocked with PBST (phosphate buffered saline, pH 7.4 with 0.05% Tween 20) as described before). The experiment was performed with two different set-ups for each compound, but each reaction mixture contained 1 μM Trx1 + 100 nM TrxR1 + 240 μM NADPH + 100 μM of the compounds, with auranofin as an inhibition control. In the first set-up (TrxR1 + Trx1), the reaction mixtures were pre-incubated for 15 min at 37°C in the absence of the compounds, which were added after the preincubation period. In the second set-up (TrxR1 + compounds), the reaction mixtures were exposed to the different compounds, but in the absence of Trx1, which was added after the 15 min pre-incubation period. The reaction mixtures were then added to the gp120-coated wells to allow the reduction of gp120, incubated for 15 min at 37°C and then washed four times with PBST to remove any unbound material. Subsequently, the wells were incubated with 2 μM biotin-maleimide for 30 min at room temperature, then washed and incubated with steptavidine-ALP (diluted 1:1000) at room temperature. […] The absorbance at 405 nm was measured using a microplate reader (Wallac Perkin-Elmer).

[2] = system: HuT-78/HIV-1 and Sup-T1 cells; assay: cells; type: cell-based; conditions: cocultures of HuT-78/HIV-1(IIIB) and Sup-T1 cells; data not shown
Description: Persistently infected HuT-78/HIV-1 cells were thoroughly washed to eliminate free virions. Next, 1 x 10^5 HuT-78/HIV-1 cells were co-cultivated with 1 x 10^5 Sup-T1 cells in 96-well plates (200 μl/well) during 20 h at 37°C, in the presence or absence of a serial dilution of compound. Afterwards, the formation of syncytia was evaluated microscopically. The EC50 was defined as the compound concentration required to suppress syncytia formation by 50%.

[3] = system: HIV; parameters: method as in PMID 8895167; conditions: cited from earlier work
[4] = biological target: T2, HIV-1 reverse transcriptase (Human immunodeficiency virus type 1 group M subtype B, UniProt P04585); assay: Reverse transcriptase inhibition (Lenti RT Activity kit); type: biochemical; conditions: 25 μM; poly-A template, overnight
Description: The ability of the compounds to inhibit the activity of viral RT was determined by a Lenti RT Activity kit (Cavidi, Uppsala, Sweden) according to the manufacturer’s instructions. A poly-A-coated plate was incubated with the reaction bufferfor up to 1 h at 33°C. Then, a mixture of the virus preparation (see virus expression) and 25 μM of the test compounds or an inhibitor control (nevirapin) were added to the RT assay mixture and incubated overnight at 33°C. The plate was washed, exposed to the provided tracer for 90 min at 33°C and washed again, before the provided substrate was added to quantify the RT reaction that took place. The plate was incubated in the dark for 30 min and subsequently read at 405 nm in a Labsystem Multiskan RC (Artisan Technology Group, Champaign, IL, USA).

[5] = biological target: T2, HIV-1 reverse transcriptase; parameters: method as in PMID 1376314; conditions: template poly rC.dG versus other templates ref 38; cited from earlier work
[6] = system: HIV-1; assay: Infectivity assay in TZM-bl cells (luciferase); conditions: 10 μM, 40 h
Description: TZM-bl cells (1 x 10^5) were infected with diluted virus suspension (see virus expression) in a total volume of 0.2 ml DMEM medium in the presence of the compounds or an inhibitor control (nevirapine). After 40 h at 37°C, the luminescence was assayed and quantified in a Luminoskan Ascent (Thermo Labsystems, Schwerte, Germany) for luciferase activity using the OneGlo luciferase assay system (Promega, Nacka, Sweden).

CC(=O)OC[C@H]1O[C@@H]([S-])[C@H](OC(C)=O)[C@@H](OC(C)=O)[C@@H]1OC(C)=O.CCP(CC)CC.[Au+] [auranofin]
reduction of gp120 disulfide bonds, % of DTT (set at 100%) [1]: 6–10%
inhibition of syncytium formation [2]: failed to inhibit syncytium formation
CD4 counts ([3]; HIV-infected patients ref 9): increased the CD4 counts
plasma HIV-RNA counts ([3]; HIV-infected patients treated for rheumatoid arthritis ref 9): lowered

Cc1ccnc2c1NC(=O)c1cccnc1N2C1CC1 [nevirapine]
inhibition of RT polymerase activity [4]: pronounced, however not complete inhibitory activity
better inhibition efficacy with poly rC.dG than other templates [5]: ~ 10 fold
inhibition of luminescence signal (HIV infection of TZM-bl) [6]: full inhibition
